In US20250212875A1, “PESTICIDAL AND HERBICIDAL COMPOUNDS AND METHODS OF USE THEREOF” (AG PLENUS LTD, priority 2022, published 2025):

Legend:
Type in all cases: in vivo
[1] = tested on: Arabidopsis thaliana; assay: HTPS post-emergence on miniature dicot model plants; conditions: green area (RGB), maximal concentration 1.5 kg/ha, read-out: Max inhibition (%)
Experimental: Arabidopsis thaliana seeds were sown in 96 well plates filled with irrigated Sweet sand (10%>clay) that is washed from salts and minerals using tap water. 5-10 seeds were sown in the center of each well. 7-8 days post sowing, at 2 true leaves stage, thinning out was performed to ensure that compound application is done on a single plant per well. The plates were placed in a controlled greenhouse in a random order inside a bath which allows flooding irrigation with tap water supplemented with a fertilizer. Applied compounds were dissolved into a final solution of 50% acetone, 49.9% DDW, 0.1% tween-20. A 96 well plate was used as a stock plate for preparing application solutions for 8 repeats. Each row contained different concentrations per chemical. Maximal concentration for application was 1.5 kg/ha and dilution factor is 2.5. Chemical application was performed one day after thinning out in a chemical hood. 5 μL applied on first two true leaves in each well using 12 channel pipettes. Data collection: RGB (red, green, blue) data for green area per well was documented using camera. Data is collected at a few time points during the experiment: one day after thinning and before chemical application, two-, six- or nine-days post application. During the last two documentations, visual phenotyping was performed. Data analysis: Given RGB results and visual phenotype scores, a student t-test conducted to compare between treatment and control performance for continuous data (RGB) and Fisher exact test to analyze the non-continuous data (phenotypic scores). Dose-Response curves are generated for each treatment to infer ED50 and max. inhibition parameters, using treatment's log concentration range as the […] variable and normalized green area. Plate imaging performed at 11 and 18 DAA. RGB data for green area per well was documented and used to extract % inhibition. Dose-Response curves were built for each treatment to infer EC50, EC75 and EC90 parameters, using treatment's log concentration range as the independent variable and normalized green area as the dependent variable. Treatments were compared to controls performance given RGB results and using student's t-test (p-val≤0.05). Compounds 101, 110, 112, 119, 124, 125, 146, 154, 157, 172, 170, 169, 112, and 166 were applied in either or both pre- and post-emergence mode to either or both monocot and dicot model plants, following the methods described above. The compounds were applied as a gradient of concentrations as listed above, from which the ED50 was calculated.

[2] = tested on: Arabidopsis thaliana; assay: HTPS pre-emergence on dicot model plants; conditions: green area (RGB)
Experimental: A 96 well plate was used as a stock plate for preparing application solutions for 8 repeats. Each row contained different concentrations per chemical. Maximal concentration for application was 1.5 kg/ha and dilution factor is 2.5. Chemical application was performed one day after thinning out in a chemical hood. 5 μL applied on first two true leaves in each well using 12 channel pipettes. Data collection: RGB (red, green, blue) data for green area per well was documented using camera. Data is collected at a few time points during the experiment: one day after thinning and before chemical application, two-, six- or nine-days post application. During the last two documentations, visual phenotyping was performed. Data analysis: Given RGB results and visual phenotype scores, a student t-test conducted to compare between treatment and control performance for continuous data (RGB) and Fisher exact test to analyze the non-continuous data (phenotypic scores). […]
(§1) Compounds 101, 110, 112, 119, 124, 125, 146, 154, 157, 172, 170, 169, 112, and 166 were applied in either or both pre- and post-emergence mode to either or both monocot and dicot model plants, following the methods described above. The compounds were applied as a gradient of concentrations as listed above, from which the ED50 was calculated.

[3] = tested on: Eragrostis teff; assay: HTPS pre-emergence on monocot model plants; conditions: green area (RGB)
Experimental: A 96 well plate was used as a stock plate for preparing application solutions for 8 repeats. Each row contained different concentrations per chemical. Maximal concentration for application was 1.5 kg/ha and dilution factor is 2.5. Chemical application was performed one day after thinning out in a chemical hood. 5 μL applied on first two true leaves in each well using 12 channel pipettes. Data collection: RGB (red, green, blue) data for green area per well was documented using camera. Data is collected at a few time points during the experiment: one day after thinning and before chemical application, two-, six- or nine-days post application. During the last two documentations, visual phenotyping was performed. Data analysis: Given RGB results and visual phenotype scores, a student t-test conducted to compare between treatment and control performance for continuous data (RGB) and Fisher exact test to analyze the non-continuous data (phenotypic scores). Dose-Response curves are generated for each treatment to infer ED50 and max. inhibition parameters, using treatment's log concentration range as the […] variable and normalized green area.
These experiments are conducted similarly except that either Arabidopsis thaliana or Eragrostis teff seeds were sowed (5-10 or 5-7, respectively), plant thinning out was not performed, compound dissolved into a final solution of 50% acetone, 49.9% DDW, compound application was done at 30 μL volume per well directly on sowed soil before plant emergence and data was collected 10 or 7 days after chemical application on dicot or monocot plants, respectively.
Plate imaging performed at 11 and 18 DAA. RGB data for green area per well was documented and used to extract % inhibition. […]
as §1

NC1(C/C=C/CC(=O)O)CC1 [Compound 112]
inhibition at up to 1500 g/ha [1]: 87.5%
Max inhibition (%) [2]: 100%
Max inhibition (%) [3]: 51%
